Assay results published in patent publication US7344884B2, “Peptides promoting cell adherence, growth and secretion” (Becton, Dickinson and Company, priority 2001, dated 2008).
Entries after “also recorded” stand apart in the source; their conditions may differ. Marks after values point to notes of the source that are not given here.

tested on: PDGF secretion by CHO cells producing rPDGF (CRL 9359/CRL9360); experiment: Sandwich ELISA for PDGF in supernatant of CHO cells cultured with test peptide; format: cell-based, Chinese Hamster; conditions: 6 mM peptide in 1A media; day 12 or sooner; 1A media post-culture value subtracted
Procedure: To identify peptides in a particular library which positively affected cell expression and secretion, each test peptide was added to a well containing a monolayer of chinese hamster ovary cells. The selected cells were anchorage-dependent CHO cells known to secrete platelet derived growth factor, which were initially grown on the tissue culture surfaces using a media with serum. After the monolayer was established, a chemically defined base media and a single test peptide were added to each well. In the present work, secretion of PDGF was assessed in the presence and absence of peptides from the library by collecting supernatant from each well and performing an ELISA specific for PDGF on the supernatant. The output was the absorbance at 492 nm. Secretion was evaluated in a basal medium rich in amino acids, the necessary vitamins, metals, carbon source and concensus CHO culture factors. PDGF levels were compared to known standards spiked into the media used for culture.
CHO cells are the most widely used animal cell lines in the field of biotechnology for the production of therapeutically important pharmaceuticals (Martin et al, REVIEW, J. of Biotechnology. Progress 1998 14, 807-833). The Chinese Hamster Ovary Cell Lines producing rPDGF (CRL 9359/CRL9360) were obtained from the American Type Culture Collection, 12301 Parklawn Drive, Rockville, Md. 20852. The depositor was Amgen Inc. of Thousand Oaks, Calif. Further details about the cell lines and expressed products can be found in U.S. Pat. No. 5,175,255.
Cells were propagated in DMEM/FI2 media with 5% serum at 37° C. between 5-7% CO2. Passages were limited to 5 prior to seeding and PDGF expression was monitored by western blot and ELISA. Cells were routinely seeded at a density of approximately 1×10^4 cells per 20 ml culture media that was placed in a 250 ml canted neck polystyrene tissue culture treated flask (Becton Dickinson). Cells were cultured to confluency and trypsinized to yield cells for seeding.
1A Media was used as a PDGF negative control (pre-culture), to hydrate the 40 ng PDGF standard (pre-culture), to hydrate test peptides (pre-culture) and to normalize all other test and control PDGF results (post-culture). The 1A media was prepared by adding the following components to a 500 ml bottle of DMEM/F12 (GIBCO cat. No. 11330-032): 2.5 ml of a 10 mM NEAA stock (GIBCO Catalog 11140-050); 10 ml of a 200 mM L-glutamine stock (GIBCO Catalog 25030-08); 1 ml of a 50 mg/ml gentamycin sulfate stock (GIBCO Catalog 15750-0601); 150 μl of a 100 μM methotrexate Stock (Sigma Catalog M8407); 0.5 ml of a 7.5 mg/ml insulin Stock (Sigma I-6634); 50 μl of a 1 mg/ml insulin-like growth factor-stock (Long R3 Factor, Sigma Catalog No. I-1271); 2.5 grams of bovine serum albumin (Sigma Catalog No. A-7906); and 0.5 ml of a 7.5 mg/ml holo-transferrin stock (Sigma T-1283).
The CHO model cell lines are adherent cultures that have never been adapted to a serum-free environment. Accordingly, media containing serum was used to seed wells. Two formats, Overlay (O) and Wash (W) were used to introduce media containing test peptides to adhered cells.
In the O-Format, compounds were gently added on top of the seeding media on the second day. In the O-Format, 9360 cells were seeded at 1,000 cells per 96 well in a 125 μl volume of 1A media with 1.5% serum. 1A media (−serum) containing 12 mM of test peptide was overlaid 2 days later for a final peptide concentration of 6 mM and 0.75% serum. Cell culture supernatant was collected from each test environment on day 10 for later PDGF assay.
In the W-Format, compounds were added on day 2 or 3 after the seeding media was removed. In the W-Format, 9359 and 9360 cells were seeded at 6,000 cells per 96 well in a 250 μl volume of DMEM/F12 with 5% serum. Three days later, the seeding media was removed and replaced with 250 μl of 1A media (−serum) containing 6 mM test peptide. Cell culture supernatant was collected on days 5 and 12 for later PDGF assay. […]

Substance	Normalized Abs at 492 nm (relative PDGF level), MDL-400 Library	Normalized Abs at 492 nm (relative PDGF level), Follow-Up Library
38 (EKKKK; Synthetic peptide selected for biological activity) [Peptide 38]	0.37	–
65 (ADELN; Synthetic peptide selected for biological activity) [Peptide 65]	0.23	–
22 (FKKKK; Synthetic peptide selected for biological activity) [Peptide 22]	0.59	–
EEEMY (Synthetic peptide selected for biological activity) [SEQ ID NO:13]	–	1.37
43 (DGKKT; Synthetic peptide selected for biological activity) [Peptide 43]	0.32	–
58 (HNPPY; Synthetic peptide selected for biological activity) [Peptide 58]	0.58	–
50 (DFFHK; Synthetic peptide selected for biological activity) [Peptide 50]	0.25	–
27 (KKPQY; Synthetic peptide selected for biological activity) [Peptide 27]	0.55	–
37 (EKKQT; Synthetic peptide selected for biological activity) [Peptide 37]	0.38	–
51 (AKKKK; Synthetic peptide selected for biological activity) [Peptide 51]	0.25	–
19 (FKKKQ; Synthetic peptide selected for biological activity) [Peptide 19]	0.79	–
56 (AKKKT; Synthetic peptide selected for biological activity) [Peptide 56]	0.20	–
63 (HHPST; Synthetic peptide selected for biological activity) [Peptide 63]	0.33	–
44 (KKPTT; Synthetic peptide selected for biological activity) [Peptide 44]	0.31	–
30 (KNQTY; Synthetic peptide selected for biological activity) [Peptide 30]	0.50	–
16 (FKLVY; Synthetic peptide selected for biological activity) [Peptide 16]	1.38	–
46 (FKKMY; Synthetic peptide selected for biological activity) [Peptide 46]	0.28	–
34 (HKNQT; Synthetic peptide selected for biological activity) [Peptide 34]	0.42	–
60 (AADEG; Synthetic peptide selected for biological activity) [Peptide 60]	0.45	–
AFFFQ (Synthetic peptide selected for biological activity) [SEQ ID NO:12]	0.43	–
31 (FKKKV; Synthetic peptide selected for biological activity) [Peptide 31]	0.49	–
53 (AHKKK; Synthetic peptide selected for biological activity) [Peptide 53]	0.22	–

same assay, conditions: library screening

Substance	effect on PDGF expression/accumulation in CHO cells (result in words)
FKFIG (Synthetic peptide selected for biological activity) [SEQ ID NO:5]	positive
KFIFG (Synthetic peptide selected for biological activity) [SEQ ID NO:45]	positive

tested on: MC3T3 cells; experiment: Oxygen biosensor assay of adherence and growth of MC3T3 cells on peptide-coated wells; format: cell-based, murine; conditions: 86 hour time point; single peptide, 50 µl of 1 mM stock dried in well; value normalized to the well's initial reading
Procedure: To identify peptides in a particular library which positively affected cell growth in cell culture, the library was screened in a growth assay. The selected cells were anchorage-dependent MC3T3 cells, which were grown on tissue culture surfaces which had been pre-coated with peptides of the present invention. The screening medium used to evaluate peptides in the library was a low serum medium allowing evaluation of peptide effects with low interference from undefined materials present in the medium. In the present work, growth of MC3T3 cells was assessed in the presence and absence of the peptides in the library which were present in the form of a dried film on a tissue culture substrate. Growth was evaluated in a basal medium rich in amino acids and containing the necessary vitamins, metals and simple carbon source. After an appropriate incubation time, growth of each peptide-supplemented culture is compared to growth of the unsupplemented culture. The extent of growth was evaluated using a Becton Dickinson oxygen sensor to detect oxygen consumption by the cells. The cell number in each well containing a particular peptide was then assessed indirectly with a flurometer which measured fluorescence generated from a fluoroescent dye using band-pass filters of 465 nm for excitation and 590 nm for emission.
Briefly, the oxygen biosensor is based upon the fluoroscence of ruthenium dye which is quenched in the presence of oxygen. The dye is immobilized within an inert but highly permeable silicone matrix located at the bottom of microtiter wells. […] (Wodnicka, M., Guarino, R. D., Hemperly, J. J. Temmins, M. R., Stitt, D. and Pitner, J. B. (2000) J. of Biomolecular Screening 5:141-152)
MC3T3-E1 is a clonal line of murine calvaria-derived osteoblast (establishement of a clonal osteogenic Cell Line from Newborn Mouse Calvaria in Jpn J. Oral Biol 23, 899 (1981)).
MC3T3 cells were maintained in αMEM (GIBCO Catalog No: 12561) supplemented with 2% fetal calf serum (FCS, inactivated) and 100 units or μg/ml of penicillin/streptomycin for one month prior to use. Cells were routinely seeded at a density of approximately 1×10^4 cells per 20 ml culture media which was placed in a 250 ml canted neck polystyrene tissue culture treated flask (Becton Dickinson). Cells were cultured until approximately 2×10^6 cells were obtainable from each flask, which were resuspended in 5 ml of αMEM with 2% FCS for a final cell concentration of about 5×10^4 cells per 150 μl for peptide screening.
For determining the biological effects of library peptides and appropriate controls on MC3T3 cells, cells (5×10^4/150 μl) were grown in an 96 well oxygen sensor plate treated as described below:
Peptides for screening were obtained from either a MDL-400 library or an MDL-100 library. Fifty microliters of peptides at a 1 mM stock concentration in phosphate buffered saline were placed in wells of a 96 well oxygen sensor plate and dried in a reverse flow air hood overnight […].
Vitrogen-collagen-I was obtained from Cohesion (Palo Alto, Calif., Catalog No. FXP-019) and fibronectin was obtained from Sigma (Catalog No. F-0895). All other extracellular matrix (ECM) compounds were obtained from Becton Dickinson Labware, (Bedford, Mass.). Polylysine was obtained from Becton Dickinson Labware and RGDSP-rhodamine was from AnaSpec Inc. (San Jose, Calif.). Extracellular matrix components (ECM) or known peptides were used at the following stock concentrations:
Twenty-five microliters of stock concentrations of controls and 25 μl of phosphate buffered saline were placed in wells of a 96 well oxygen sensor plate and dried overnight as described above.
Cells grown on 96 well oxygen sensor plates treated as described above were monitored for growth using a Becton Dickinson oxygen biosensor. Growth was monitored at the following time points: 1 hours, 24 hours, 32 hours, 48 hours and 86 hours. Media was changed every three days. […]

Substance	Abs at 590 nm (relative oxygen consumption), MDL-400 Library
FKFIG (Synthetic peptide selected for biological activity) [SEQ ID NO:5]	2.27*

same assay, conditions: peptide or control adsorbed to surface; compared with uncoated surface or controls

Substance	impact on MC3T3 growth (result in words)
FKFIG (Synthetic peptide selected for biological activity) [SEQ ID NO:5]	positive; also recorded: significant difference in growth

same assay, conditions: peptide or control adsorbed to surface; compared with uncoated surface or controls; listed as FKFIG

Substance	impact on MC3T3 growth (result in words)
FKFIG (Synthetic peptide selected for biological activity) [SEQ ID NO:5]	positive
